Data from US10287251B2, “Pyrazole derivative or pharmaceutically acceptable salt thereof” (KISSEI PHARMACEUTICAL CO., LTD., priority 2015, dated 2019).

biological target: T1, TRPM8 (Rattus norvegicus, UniProt Q8R455); experiment: Confirmation test of inhibitory effects on icilin-induced wet-dog shakes; assay type: in vivo; details: female SD rats, oral dose 0.3 mg/kg, icilin 1 mg/kg i.p. 1 hour after dosing, shakes counted for 5 minutes
T1 construct: from tissue; host or cells: whole animal, female SD rats (in vivo)
T1 sequence (Q8R455 whole entry): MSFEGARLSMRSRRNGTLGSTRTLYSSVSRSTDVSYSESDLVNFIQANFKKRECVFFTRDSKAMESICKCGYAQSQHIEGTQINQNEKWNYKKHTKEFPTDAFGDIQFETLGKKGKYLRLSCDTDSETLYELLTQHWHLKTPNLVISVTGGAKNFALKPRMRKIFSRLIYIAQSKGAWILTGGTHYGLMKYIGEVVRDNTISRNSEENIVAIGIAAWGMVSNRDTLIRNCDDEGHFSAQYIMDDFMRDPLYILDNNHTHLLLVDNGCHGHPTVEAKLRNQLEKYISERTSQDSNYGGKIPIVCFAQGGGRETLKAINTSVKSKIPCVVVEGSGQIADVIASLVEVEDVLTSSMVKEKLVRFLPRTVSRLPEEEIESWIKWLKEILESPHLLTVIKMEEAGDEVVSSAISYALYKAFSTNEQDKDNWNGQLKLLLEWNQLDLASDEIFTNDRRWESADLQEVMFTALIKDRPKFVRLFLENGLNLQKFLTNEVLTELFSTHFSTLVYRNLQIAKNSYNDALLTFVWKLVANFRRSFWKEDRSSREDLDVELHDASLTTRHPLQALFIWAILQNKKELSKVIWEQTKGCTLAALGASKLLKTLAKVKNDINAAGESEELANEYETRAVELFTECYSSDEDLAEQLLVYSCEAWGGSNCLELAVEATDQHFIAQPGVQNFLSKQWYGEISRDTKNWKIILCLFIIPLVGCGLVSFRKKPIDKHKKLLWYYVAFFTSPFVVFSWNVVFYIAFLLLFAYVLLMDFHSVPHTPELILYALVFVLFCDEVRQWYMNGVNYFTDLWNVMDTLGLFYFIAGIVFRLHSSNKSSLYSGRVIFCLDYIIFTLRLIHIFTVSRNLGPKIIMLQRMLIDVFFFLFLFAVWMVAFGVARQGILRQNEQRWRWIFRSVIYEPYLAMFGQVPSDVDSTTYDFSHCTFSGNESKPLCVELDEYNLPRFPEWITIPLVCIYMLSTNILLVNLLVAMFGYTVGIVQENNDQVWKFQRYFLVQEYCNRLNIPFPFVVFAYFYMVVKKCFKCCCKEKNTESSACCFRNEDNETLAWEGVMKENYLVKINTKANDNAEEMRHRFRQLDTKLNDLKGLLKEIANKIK
Excerpt: Further, TRPM8 inhibitory activity can be evaluated by the efficacy inhibiting the wet-dog shake action which is induced by the administration of Icilin, TRPM8 agonist. Furthermore, an effect on overactive bladder (OAB) can be evaluated by an elongation of micturition interval against overactive bladder induced by acetic acid in accordance with a similar method described in J. Urol., 2001, 166, 1142.
Confirmation Test of Inhibitory Effects on Icilin-induced Wet-dog Shakes
Test compounds were dissolved in dimethylacetamide (wako), and 0.5% methylcellulose solution (wako) was added to make the solution or suspension containing 5% of dimethylacetatnide. At a dose of 0.3 to 10 mg/kg/5mL of test compounds were orally administered to female SD rats. After 1 hour, wet-dog shakes were induced by the intraperitoneal injection of icilin (1 mg/kg) which was dissolved in polyethylene glycol 400 (wako). From 5 minutes after the administration of icilin, wet-dog shakes were counted for 5 minutes. For control example, vehicle (a mixture of dimethylacetamide (wako): 0.5% methylcellulose (wako)=5:95) was administrated similarly, and the number of wet-dog shakes was counted in the same manner. A percent inhibition of wet-dog shakes by test compound was calculated from the following formula: [1-(test compound wet-dog shake count/vehicle wet-dog shake count)]×100.

Row | SMILES | % inhibition of Wet-Dog Shake
1 | CO[C@H](CO)[C@@H](Cc1ccccn1)NC(=O)c1ccccc1-c1n[nH]c(-c2ccc(F)cc2)c1F [Example 43-5] | 98%
2 | CO[C@H](CO)[C@@H](Cc1ccccn1)NC(=O)c1ccccc1-c1cc(-c2ccc(F)cc2)[nH]n1 [Example 43-13] | 90%

The remaining lines, values ahead:

Row | % inhibition of Wet-Dog Shake | SMILES
3 | 56% | CO[C@H](CO)[C@@H](Cc1ncccc1F)NC(=O)c1cccc(F)c1-c1cc(-c2ccc(F)cc2)[nH]n1 [Example 27-20]
4 | 62% | CO[C@H](CO)[C@@H](Cn1nccn1)NC(=O)c1cccc(F)c1-c1n[nH]c(-c2ccc(F)cc2)c1F [Example 27-30]

same assay, conditions: female SD rats, oral dose 1 mg/kg, icilin 1 mg/kg i.p. 1 hour after dosing, shakes counted for 5 minutes

Row | SMILES | % inhibition of Wet-Dog Shake
5 | CO[C@H](CO)[C@@H](Cc1cscn1)NC(=O)c1cccc(F)c1-c1cc(-c2ccc(F)cc2)[nH]n1 [Example 27-21] | 32%
6 | O=C(N[C@@H](CCO)Cc1ccccn1)c1cccc(F)c1-c1n[nH]c(-c2ccc(F)cc2)c1F [Example 28-1, 3-Fluoro-2-[4-fluoro-5-(4-fluorophenyl)-1H-pyrazol-3-yl]-N-[(2R)-4-hydroxy-1-(pyridin-2-yl)butan-2-yl]benzamide] | 62%
7 | CC(C)(O)[C@@H](Cc1ccccn1)NC(=O)c1cccc(F)c1-c1n[nH]c(-c2ccc(F)cc2)c1F [Example 33-2] | 88%
8 | CO[C@H](CO)[C@@H](Cc1ccccn1)NC(=O)c1ccccc1-c1n[nH]c(-c2ccc(Cl)cc2)c1F [Example 43-18] | 85%
9 | O=C(N[C@H](Cc1ccccn1)[C@@H](F)CO)c1cccc(F)c1-c1cc(-c2ccc(F)cc2)[nH]n1 [Example 43-23] | 100%

The next lines start with the values.

Row | % inhibition of Wet-Dog Shake | SMILES
10 | 100% | CO[C@H](CO)[C@@H](Cn1nccn1)NC(=O)c1cccc(F)c1-c1cc(-c2ccc(F)cc2)[nH]n1 [Example 27-22]
11 | 100% | CO[C@H](CO)[C@@H](Cc1ccccn1)NC(=O)c1cccc(F)c1-c1n[nH]c(-c2ccc(F)cc2)c1F [Example 43-14]
12 | 73% | CCO[C@H](CO)[C@@H](Cc1ccccn1)NC(=O)c1cccc(F)c1-c1cc(-c2ccc(F)cc2)[nH]n1 [Example 43-15]
13 | 100% | O=C(N[C@H](Cc1ccccn1)[C@H](F)CO)c1cccc(F)c1-c1cc(-c2ccc(F)cc2)[nH]n1 [Example 43-24]
14 | 79% | O=C(N[C@H](Cc1ncccn1)[C@H](F)CO)c1cccc(F)c1-c1cc(-c2ccc(F)cc2)[nH]n1 [Example 43-29]

same assay, conditions: female SD rats, oral dose 3 mg/kg, icilin 1 mg/kg i.p. 1 hour after dosing, shakes counted for 5 minutes

Row | SMILES | % inhibition of Wet-Dog Shake
15 | O=C(N[C@H](Cc1ncccn1)[C@@H](O)CO)c1cccc(F)c1-c1cc(-c2ccc(F)cc2)[nH]n1 [Example 31-1, N-[(2R,3R)-3,4-Dihydroxy-1-(pyrimidin-2-yl)butan-2-yl]-3-fluoro-2-[5-(4-fluorophenyl)-1H-pyrazol-3-yl]benzamide] | 36%
16 | CC(C)(O)[C@@H](Cc1ccccn1)NC(=O)c1cccc(Cl)c1-c1cc(-c2ccc(F)cc2)[nH]n1 [Example 33-3] | 32%
17 | C[C@@](CO)(Cc1ccccn1)NC(=O)c1cccc(F)c1-c1cc(-c2ccc(F)cc2)[nH]n1 [Example 36-2] | 72%
18 | CO[C@@H](CO)[C@@H](Cc1ccccn1)NC(=O)c1cccc(F)c1-c1cc(-c2ccc(F)cc2)[nH]n1 [Example 43-2] | 100%
19 | CO[C@H](CO)[C@@H](Cc1ccccn1)NC(=O)c1cccc(Cl)c1-c1cc(-c2ccc(F)cc2)[nH]n1 [Example 43-4] | 77%
20 | COC(c1ccccn1)[C@H](CO)NC(=O)c1cccc(F)c1-c1cc(-c2ccc(F)cc2)[nH]n1 (some centres unmarked) [Example 43-11] | 88%
21 | COC(c1ccccn1)[C@H](CO)NC(=O)c1cccc(Cl)c1-c1cc(-c2ccc(F)cc2)[nH]n1 (some centres unmarked) [Example 43-12] | 92%
22 | COC(c1ccccn1)[C@H](CO)NC(=O)c1cccc(F)c1-c1n[nH]c(-c2ccc(F)cc2)c1F (some centres unmarked) [Example 43-16] | 97%
23 | CCOC(c1ccccn1)[C@H](CO)NC(=O)c1cccc(F)c1-c1cc(-c2ccc(F)cc2)[nH]n1 (some centres unmarked) [Example 43-22] | 98%
24 | O=C(N[C@@H](Cc1ccccn1)[C@H](F)CO)c1cccc(F)c1-c1cc(-c2ccc(F)cc2)[nH]n1 [Example 43-25] | 100%
25 | CO[C@H](CO)[C@@H](Cc1ccccn1)NC(=O)c1cccc(F)c1-c1cc(-c2ccc(F)cc2F)[nH]n1 [Example 43-34] | 100%
26 | CO[C@H](CO)[C@@H](Cc1ccccn1)NC(=O)c1cccc(F)c1-c1n[nH]c(-c2ccc(F)cc2)c1Cl [Example 43-36] | 31%

Second part, the compound after the results:

Row | % inhibition of Wet-Dog Shake | SMILES
27 | 99% | CO[C@@H](CO)[C@@H](Cn1cccn1)NC(=O)c1cccc(F)c1-c1n[nH]c(-c2ccc(F)cc2)c1F [Example 27-24]
28 | 47% | CO[C@H](CO)[C@@H](Cn1cc(Cl)cn1)NC(=O)c1cccc(F)c1-c1cc(-c2ccc(F)cc2)[nH]n1 [Example 27-29]
29 | 100% | CC(C)(O)[C@@H](Cc1ccccn1)NC(=O)c1cccc(F)c1-c1cc(-c2ccc(F)cc2)[nH]n1 [Example 33-1, 3-Fluoro-2-[-5-(4-fluorophenyl)-1H-pyrazol-3-yl]-N-[(2R)-3-hydroxy-3-methyl-1-(pyridin-2-yl)butan-2-yl]benzamide]
30 | 92% | CC(C)(O)[C@@H](Cc1ccccn1)NC(=O)c1cccc(F)c1-c1cc(-c2ccc(Cl)cc2)[nH]n1 [Example 34-1HP, 2-[-5-(4-Chlorophenyl)-1H-pyrazol-3-yl]-3-fluoro-N-[(2R)-3-hydroxy-3-methyl-1-(pyridin-2-yl)butan-2-yl]benzamide]
31 | 42% | CC(CO)(CO)[C@@H](Cc1ccccn1)NC(=O)c1cccc(F)c1-c1cc(-c2ccc(Cl)cc2)[nH]n1 [Example 35-1, 2-[5-(4-Chlorophenyl)-1H-pyrazol-3-yl]-3-fluoro-N-[(2R)-4-hydroxy-3-(hydroxymethyl)-3-methyl-1-(pyridin-2-yl)butan-2-yl]benzamide]
32 | 69% | O=C(N[C@H](Cc1ccccn1)C(CO)CO)c1cccc(F)c1-c1cc(-c2ccc(F)cc2)[nH]n1 [Example 35-3]
33 | 39% | O=C(N[C@@H](CCO)Cc1ccccn1)c1cccc(Cl)c1-c1cc(-c2ccc(F)cc2)[nH]n1 [Example 36-1, 3-Chloro-2-[5-(4-fluorophenyl)-1H-pyrazol-3-yl]-N-[(2R)-4-hydroxy-1-(pyridin-2-yl)butan-2-yl]benzamide]
34 | 38% | NC(=O)[C@@H](Cc1ccccn1)NC(=O)c1cccc(F)c1-c1cc(-c2ccc(F)cc2)[nH]n1 [Example 37-1, (2R)-2-{3-Fluoro-2-[-5-(4-fluorophenyl)-1H-pyrazol-3-yl]benzoylamino}-3-(pyridin-2-yl)propanamide]
35 | 50% | O=C(N[C@@H](CO)Cc1ncccc1Cl)c1cccc(F)c1-c1cc(-c2ccc(F)cc2)[nH]n1 [Example 39-2]
36 | 49% | COC(c1ccccn1)[C@H](CO)NC(=O)c1cccc(F)c1-c1cc(-c2ccc(F)cc2)[nH]n1 (some centres unmarked) [Example 43-6]
37 | 89% | COC(c1ccccn1)[C@H](CCO)NC(=O)c1cccc(F)c1-c1cc(-c2ccc(F)cc2)[nH]n1 (some centres unmarked) [Example 43-9]
38 | 78% | COC(c1ccccn1)[C@H](CO)NC(=O)c1ccccc1-c1n[nH]c(-c2ccc(F)cc2)c1F (some centres unmarked) [Example 43-17]
